Patent US12072333B2, “Method and apparatus for selective removal of cells from a cell suspension by mechanical lysis” (UNIVERSITY OF IOWA RESEARCH FOUNDATION, priority 2016, dated 2024)

Tested on: prostate cancer cells
Assay: Cell killing by ionomycin measured by uptake of trypan blue dye
Assay type: cell-based
Details: prostate cancer cells treated with ionomycin; after 30 minute; FIG. 1B

## C[C@H](CCC(=O)O)C[C@H](C)C[C@H](C)C(=O)/C=C(\O)[C@H](C)C[C@H](C)C/C=C/[C@@H](C)[C@@H](O)[C@@H](C)[C@@H](O)C[C@@H]1CC[C@@](C)([C@H]2CC[C@@](C)([C@@H](C)O)O2)O1 [ionomycin]
  cell death as measured by uptake of trypan blue dye: rapidly kills these cells
